Drawing on ChEMBL document CHEMBL3045717, “Synthesis and pharmacological properties of some novel pyrazolidine and pyrazole derivatives” (2012), this text covers zone of inhibition for 10 compounds.

Assay type in all cases: functional
What all share (details): read-out: DIZ

The subject of test [1] is Escherichia coli. The test can be described thus: Antibacterial activity against Escherichia coli at 200 ug/ml after 24 hr by agar diffusion cup-plate method.
The test system of test [2] is Escherichia coli. Put plainly: Antibacterial activity against Escherichia coli at 50 ug/ml after 24 hr by agar diffusion cup-plate method. For orientation: A growth-free zone around the sample is the usual read-out of agar diffusion tests.
The test system of test [3] is Aspergillus niger. Put plainly: Antifungal activity against Aspergillus niger at 200 ug/ml after 48 to 72 hr by agar diffusion cup-plate method.
The test system of test [4] is Candida albicans. Put plainly: Antifungal activity against Candida albicans at 50 ug/ml after 48 to 72 hr by agar diffusion cup-plate method.
The test system of test [5] is Staphylococcus aureus. The test can be described thus: Antibacterial activity against Staphylococcus aureus at 200 ug/ml after 24 hr by agar diffusion cup-plate method.
For test [6], the system named is Bacillus subtilis. Put plainly: Antibacterial activity against Bacillus subtilis at 50 ug/ml after 24 hr by agar diffusion cup plate method.
Test [7] concerns Pseudomonas aeruginosa. The test can be described thus: Antibacterial activity against Pseudomonas aeruginosa at 50 ug/ml after 24 hr by agar diffusion cup-plate method.
In test [8] the test system is Candida albicans. The test can be described thus: Antifungal activity against Candida albicans at 100 ug/ml after 48 to 72 hr by agar diffusion cup-plate method.
Test [9] has as its system Staphylococcus aureus. The test can be described thus: Antibacterial activity against Staphylococcus aureus at 100 ug/ml after 24 hr by agar diffusion cup-plate method.
Test [10] concerns Pseudomonas aeruginosa. The test can be described thus: Antibacterial activity against Pseudomonas aeruginosa at 200 ug/ml after 24 hr by agar diffusion cup-plate method.
The subject of test [11] is Aspergillus niger. The test can be described thus: Antifungal activity against Aspergillus niger at 100 ug/ml after 48 to 72 hr by agar diffusion cup-plate method.
Test [12] relates to Escherichia coli. Put plainly: Antibacterial activity against Escherichia coli at 100 ug/ml after 24 hr by agar diffusion cup-plate method.
Test [13] concerns Staphylococcus aureus. Put plainly: Antibacterial activity against Staphylococcus aureus at 50 ug/ml after 24 hr by agar diffusion cup-plate method.
The test system of test [14] is Pseudomonas aeruginosa. Put plainly: Antibacterial activity against Pseudomonas aeruginosa at 100 ug/ml after 24 hr by agar diffusion cup-plate method.
Test [15] deals with Candida albicans. Put plainly: Antifungal activity against Candida albicans at 200 ug/ml after 48 to 72 hr by agar diffusion cup-plate method.
Test [16] relates to Bacillus subtilis. The test can be described thus: Antibacterial activity against Bacillus subtilis at 100 ug/ml after 24 hr by agar diffusion cup plate method.
The subject of test [17] is Bacillus subtilis. The test can be described thus: Antibacterial activity against Bacillus subtilis at 200 ug/ml after 24 hr by agar diffusion cup plate method.
Test [18] has as its system Aspergillus niger. Put plainly: Antifungal activity against Aspergillus niger at 50 ug/ml after 48 to 72 hr by agar diffusion cup-plate method.

Regarding `O=[N+]([O-])c1ccc(NNC(=S)Nc2ccccc2)c([N+](=O)[O-])c1`, the zone of inhibition at 200 µg/mL amounted to 18.6 mm with Escherichia coli [1]; 16.2 mm with Aspergillus niger [3]; 18 mm in the test on Staphylococcus aureus [5]; 20.2 mm in the test with Pseudomonas aeruginosa [10]; 18.4 mm in the test with Candida albicans [15]; 18.4 mm in the test on Bacillus subtilis [17]. Besides, the zone of inhibition at 50 µg/mL in the test on Escherichia coli [2] came to 10.2 mm; with Candida albicans [4] it was 11.5 mm; with Bacillus subtilis [6], 10.2 mm; in the test with Pseudomonas aeruginosa [7] it was 12 mm; in the test with Staphylococcus aureus [13] it was 10 mm; with Aspergillus niger [18] it was 10 mm. Also, the zone of inhibition at 100 µg/mL in the test on Candida albicans [8] worked out at 14.1 mm; in the test on Staphylococcus aureus [9], 14 mm; in the test on Aspergillus niger [11] it was 14.2 mm; in the test with Escherichia coli [12] it was 14.1 mm; in the test with Pseudomonas aeruginosa [14], 14.2 mm; with Bacillus subtilis [16], 14.1 mm.

As for `Cc1cc(C)n(-c2ccc([N+](=O)[O-])cc2[N+](=O)[O-])n1`, the zone of inhibition at 200 µg/mL with Escherichia coli [1] was found to be 28.5 mm; with Aspergillus niger [3], 25 mm; in the test on Staphylococcus aureus [5] it was 24 mm; with Pseudomonas aeruginosa [10], 25 mm; in the test on Candida albicans [15], 24.5 mm; in the test on Bacillus subtilis [17], 22.9 mm. In addition, the zone of inhibition at 50 µg/mL with Escherichia coli [2] was 14.3 mm; with Candida albicans [4] it was 14.3 mm; with Bacillus subtilis [6], 10.4 mm; in the test with Pseudomonas aeruginosa [7], 10.2 mm; in the test on Staphylococcus aureus [13], 14 mm; in the test with Aspergillus niger [18] it was 10.2 mm. For the same compound, the zone of inhibition at 100 µg/mL with Candida albicans [8] was found to be 20 mm; in the test with Staphylococcus aureus [9] it was 23 mm; in the test on Aspergillus niger [11] it was 18.6 mm; in the test on Escherichia coli [12], 23 mm; in the test with Pseudomonas aeruginosa [14] it was 18.6 mm; in the test with Bacillus subtilis [16] it was 18.5 mm.

Turning to `Clc1ccccc1C(c1ccccc1)(c1ccccc1)n1ccnc1` [CLOTRIMAZOLE], the zone of inhibition at 200 µg/mL with Aspergillus niger [3] and with Candida albicans [15] was 28.4 mm throughout. Moreover, the zone of inhibition at 50 µg/mL in the test on Candida albicans [4] and in the test with Aspergillus niger [18] was 28.4 mm in each case. The zone of inhibition at 100 µg/mL in the test on Candida albicans [8] and in the test on Aspergillus niger [11] was 28.4 mm in each case.

For the compound `O=C1CC(CCl)=NN1c1ccc([N+](=O)[O-])cc1[N+](=O)[O-]`, the zone of inhibition at 200 µg/mL in the test on Escherichia coli [1] is 30.4 mm; with Aspergillus niger [3], 26.6 mm; in the test on Staphylococcus aureus [5], 28.1 mm; with Pseudomonas aeruginosa [10], 28.6 mm; in the test with Candida albicans [15] it was 26.4 mm; with Bacillus subtilis [17], 28 mm. The zone of inhibition at 50 µg/mL in the test on Escherichia coli [2] was found to be 14.2 mm; in the test with Candida albicans [4], 14.2 mm; in the test on Bacillus subtilis [6], 12.2 mm; in the test with Pseudomonas aeruginosa [7], 14 mm; in the test on Staphylococcus aureus [13], 15 mm; in the test with Aspergillus niger [18] it was 14 mm. Further, the zone of inhibition at 100 µg/mL turned out to be 23 mm in the test on Candida albicans [8]; 20 mm with Staphylococcus aureus [9]; 22.1 mm in the test with Aspergillus niger [11]; 23 mm in the test on Escherichia coli [12]; 22.1 mm in the test with Pseudomonas aeruginosa [14]; 20.1 mm with Bacillus subtilis [16].

Turning to `CC1=NN(c2ccc([N+](=O)[O-])cc2[N+](=O)[O-])C(=O)C1`, the zone of inhibition at 200 µg/mL worked out at 20.4 mm with Escherichia coli [1]; 18 mm with Aspergillus niger [3]; 24.1 mm in the test on Staphylococcus aureus [5]; 22 mm in the test on Pseudomonas aeruginosa [10]; 20.4 mm with Candida albicans [15]; 12 mm in the test with Bacillus subtilis [17]. In addition, the zone of inhibition at 50 µg/mL was 12 mm in the test with Escherichia coli [2]; 10 mm in the test with Candida albicans [4]; 10.2 mm in the test with Bacillus subtilis [6]; 12.2 mm in the test on Pseudomonas aeruginosa [7]; 14.2 mm in the test on Staphylococcus aureus [13]; 12.2 mm with Aspergillus niger [18]. In addition, the zone of inhibition at 100 µg/mL with Candida albicans [8] was determined as 14 mm; with Staphylococcus aureus [9] it was 18 mm; with Aspergillus niger [11], 14 mm; in the test on Escherichia coli [12], 16 mm; in the test with Pseudomonas aeruginosa [14] it was 16 mm; in the test with Bacillus subtilis [16], 10.1 mm.

In the case of `CCn1cc(C(=O)O)c(=O)c2cc(F)c(N3CCNCC3)cc21` [NORFLOXACIN], the zone of inhibition at 200 µg/mL in the test on Escherichia coli [1] was 35.5 mm; with Staphylococcus aureus [5], 30.4 mm; in the test with Pseudomonas aeruginosa [10], 31.1 mm; with Bacillus subtilis [17], 31.3 mm. In addition, the zone of inhibition at 50 µg/mL stood at 35.4 mm in the test with Escherichia coli [2], 31.3 mm in the test on Bacillus subtilis [6], 31.1 mm in the test with Pseudomonas aeruginosa [7] and 30.4 mm in the test on Staphylococcus aureus [13]. Besides, the zone of inhibition at 100 µg/mL came to 30.4 mm in the test on Staphylococcus aureus [9], 35.4 mm with Escherichia coli [12], 31.1 mm in the test with Pseudomonas aeruginosa [14] and 31.3 mm with Bacillus subtilis [16].

Consider `NC1=NN(c2ccc([N+](=O)[O-])cc2[N+](=O)[O-])C(=O)C1`, for which the zone of inhibition at 200 µg/mL in the test on Escherichia coli [1] was determined as 20.6 mm; in the test with Aspergillus niger [3], 14.3 mm; in the test on Staphylococcus aureus [5] it was 26 mm; with Pseudomonas aeruginosa [10] it was 16.3 mm; with Candida albicans [15] it was 20.8 mm; in the test with Bacillus subtilis [17], 12 mm. For the same compound, the zone of inhibition at 50 µg/mL was determined as 12.3 mm in the test with Escherichia coli [2]; 12.3 mm in the test on Candida albicans [4]; 10.4 mm in the test with Bacillus subtilis [6]; 8.4 mm with Pseudomonas aeruginosa [7]; 14 mm with Staphylococcus aureus [13]; 8.4 mm in the test on Aspergillus niger [18]. For the same compound, the zone of inhibition at 100 µg/mL in the test with Candida albicans [8] amounted to 14 mm; with Staphylococcus aureus [9] it was 20 mm; with Aspergillus niger [11], 10.1 mm; in the test with Escherichia coli [12], 16 mm; in the test with Pseudomonas aeruginosa [14] it was 12.1 mm; with Bacillus subtilis [16], 8.1 mm.

Take `O=C1CS/C(=N/c2ccccc2)N1Nc1ccc([N+](=O)[O-])cc1[N+](=O)[O-]`: the zone of inhibition at 200 µg/mL in the test on Escherichia coli [1] was found to be 30.1 mm; with Aspergillus niger [3], 16.6 mm; in the test with Staphylococcus aureus [5], 30.4 mm; in the test on Pseudomonas aeruginosa [10], 12 mm; in the test on Candida albicans [15], 24.2 mm; in the test on Bacillus subtilis [17] it was 26.4 mm. Further, the zone of inhibition at 50 µg/mL with Escherichia coli [2] worked out at 18.2 mm; in the test on Candida albicans [4], 11.1 mm; in the test on Bacillus subtilis [6], 12 mm; in the test with Pseudomonas aeruginosa [7], 10.2 mm; in the test on Staphylococcus aureus [13], 16.2 mm; in the test on Aspergillus niger [18] it was 10.2 mm. In addition, the zone of inhibition at 100 µg/mL with Candida albicans [8] amounted to 18.4 mm; in the test on Staphylococcus aureus [9] it was 22.2 mm; in the test on Aspergillus niger [11], 14.5 mm; in the test on Escherichia coli [12], 26.1 mm; in the test on Pseudomonas aeruginosa [14], 10.3 mm; in the test with Bacillus subtilis [16] it was 20.8 mm.

`O=C1CC(=O)N(c2ccc([N+](=O)[O-])cc2[N+](=O)[O-])N1`: the zone of inhibition at 200 µg/mL in the test on Escherichia coli [1] was determined as 20.2 mm; with Aspergillus niger [3] it was 14.1 mm; with Staphylococcus aureus [5], 18.1 mm; in the test with Pseudomonas aeruginosa [10] it was 16.1 mm; with Candida albicans [15], 10.2 mm; in the test with Bacillus subtilis [17], 16 mm. Moreover, the zone of inhibition at 50 µg/mL in the test on Escherichia coli [2] was determined as 16.2 mm; in the test on Candida albicans [4], 6.2 mm; in the test with Bacillus subtilis [6] it was 10.2 mm; with Pseudomonas aeruginosa [7], 12.1 mm; in the test on Staphylococcus aureus [13], 8.4 mm; in the test on Aspergillus niger [18] it was 10.1 mm. The zone of inhibition at 100 µg/mL worked out at 10.1 mm in the test with Candida albicans [8]; 12 mm in the test on Staphylococcus aureus [9]; 12.2 mm in the test on Aspergillus niger [11]; 18.1 mm with Escherichia coli [12]; 13.2 mm in the test on Pseudomonas aeruginosa [14]; 12 mm with Bacillus subtilis [16].

`CC(=O)N1C(=O)CC(=O)N1c1ccc([N+](=O)[O-])cc1[N+](=O)[O-]`: the zone of inhibition at 200 µg/mL in the test on Escherichia coli [1] was 30.6 mm; with Aspergillus niger [3], 24 mm; in the test with Staphylococcus aureus [5], 26.1 mm; with Pseudomonas aeruginosa [10], 28 mm; in the test on Candida albicans [15] it was 24.2 mm; in the test with Bacillus subtilis [17] it was 25.1 mm. Also, the zone of inhibition at 50 µg/mL in the test on Escherichia coli [2] stood at 13.2 mm; in the test on Candida albicans [4], 13.2 mm; in the test with Bacillus subtilis [6], 10.2 mm; with Pseudomonas aeruginosa [7], 18.2 mm; in the test on Staphylococcus aureus [13], 10 mm; in the test with Aspergillus niger [18] it was 12.2 mm. For the same compound, the zone of inhibition at 100 µg/mL with Candida albicans [8] is 18.2 mm; in the test with Staphylococcus aureus [9] it was 22 mm; in the test with Aspergillus niger [11], 16.8 mm; with Escherichia coli [12] it was 15.2 mm; in the test on Pseudomonas aeruginosa [14] it was 22.8 mm; in the test with Bacillus subtilis [16], 18.9 mm.
